Source: patent publication US20240383901A1, “SUBSTITUTED PYRROLO[2,3-D]PYRIMIDINES, THEIR PREPARATION AND THEIR THERAPEUTIC APPLICATION” (SANOFI, priority 2021, published 2024)

What was measured:
full-length LRRK2 G2019S = target: T1, full-length LRRK2 G2019S (Homo sapiens, UniProt Q5S007, G2019S); experiment: LRRK2-G2019S kinase activity assay (Lanthascreen TR-FRET); format: biochemical; conditions: 1.1 mM ATP
T1 construct: DYKDDDDK (FLAG)
Protocol: (§1) The potency of compounds was evaluated in vitro using the Lanthascreen® technology (ThermoFisher Scientific).
(§2) In a typical experiment, the reaction assay buffer contains 50 mM Tris pH8.2, 1 mM EGTA, 2.5 mM MgCl2, 0.05% Triton X100, 0.15% BSA and 1 mM DTT. The detection of the assay is performed using 1 nM Terbium labeled anti-phospho-LRRKtide (ThermoFisher Scientific) diluted in a TR-FRET buffer (ThermoFisher Scientific).
(§3) The experimental procedure was performed with Greiner small volume® 384-well. […] The working solution of compounds was prepared in a separate Greiner microplate.
(§4) The kinase reaction was initiated by addition of the ATP/LRRKtide substrate mix diluted in the reaction assay buffer. The reaction mix was incubated for at least 10 minutes at room temperature (initial velocity conditions). Reaction was stopped by addition of Terbium labeled anti-phospho-LRRKtide diluted into the detection buffer supplemented with EDTA (ThermoFisher Scientific). Plates are incubated for at least 30 minutes at room temperature and read on an Envision™ multimode plate reader (PerkinElmer) with LanthaScreen™. The TR-FRET 520:495 nm emission ratio was calculated and used to determine the IC50 value from a dose response curve fit to the 4-parameter logistic equation. The activity with respect to LRRK2 kinase in this test is given by the concentration which inhibits 50% of the LRRK2 activity (or IC50) in nM.

[1] = target: T2, full-length LRRK2 wild type (Homo sapiens, UniProt Q5S007); experiment: LRRK2 WT assay (Assay A, Lanthascreen TR-FRET, 500 uM ATP); format: biochemical; conditions: Assay A (values without *)
T2 construct: DYDDDDK tagged full-length LRRK2 wild type is used
T2 sequence (Q5S007 whole entry): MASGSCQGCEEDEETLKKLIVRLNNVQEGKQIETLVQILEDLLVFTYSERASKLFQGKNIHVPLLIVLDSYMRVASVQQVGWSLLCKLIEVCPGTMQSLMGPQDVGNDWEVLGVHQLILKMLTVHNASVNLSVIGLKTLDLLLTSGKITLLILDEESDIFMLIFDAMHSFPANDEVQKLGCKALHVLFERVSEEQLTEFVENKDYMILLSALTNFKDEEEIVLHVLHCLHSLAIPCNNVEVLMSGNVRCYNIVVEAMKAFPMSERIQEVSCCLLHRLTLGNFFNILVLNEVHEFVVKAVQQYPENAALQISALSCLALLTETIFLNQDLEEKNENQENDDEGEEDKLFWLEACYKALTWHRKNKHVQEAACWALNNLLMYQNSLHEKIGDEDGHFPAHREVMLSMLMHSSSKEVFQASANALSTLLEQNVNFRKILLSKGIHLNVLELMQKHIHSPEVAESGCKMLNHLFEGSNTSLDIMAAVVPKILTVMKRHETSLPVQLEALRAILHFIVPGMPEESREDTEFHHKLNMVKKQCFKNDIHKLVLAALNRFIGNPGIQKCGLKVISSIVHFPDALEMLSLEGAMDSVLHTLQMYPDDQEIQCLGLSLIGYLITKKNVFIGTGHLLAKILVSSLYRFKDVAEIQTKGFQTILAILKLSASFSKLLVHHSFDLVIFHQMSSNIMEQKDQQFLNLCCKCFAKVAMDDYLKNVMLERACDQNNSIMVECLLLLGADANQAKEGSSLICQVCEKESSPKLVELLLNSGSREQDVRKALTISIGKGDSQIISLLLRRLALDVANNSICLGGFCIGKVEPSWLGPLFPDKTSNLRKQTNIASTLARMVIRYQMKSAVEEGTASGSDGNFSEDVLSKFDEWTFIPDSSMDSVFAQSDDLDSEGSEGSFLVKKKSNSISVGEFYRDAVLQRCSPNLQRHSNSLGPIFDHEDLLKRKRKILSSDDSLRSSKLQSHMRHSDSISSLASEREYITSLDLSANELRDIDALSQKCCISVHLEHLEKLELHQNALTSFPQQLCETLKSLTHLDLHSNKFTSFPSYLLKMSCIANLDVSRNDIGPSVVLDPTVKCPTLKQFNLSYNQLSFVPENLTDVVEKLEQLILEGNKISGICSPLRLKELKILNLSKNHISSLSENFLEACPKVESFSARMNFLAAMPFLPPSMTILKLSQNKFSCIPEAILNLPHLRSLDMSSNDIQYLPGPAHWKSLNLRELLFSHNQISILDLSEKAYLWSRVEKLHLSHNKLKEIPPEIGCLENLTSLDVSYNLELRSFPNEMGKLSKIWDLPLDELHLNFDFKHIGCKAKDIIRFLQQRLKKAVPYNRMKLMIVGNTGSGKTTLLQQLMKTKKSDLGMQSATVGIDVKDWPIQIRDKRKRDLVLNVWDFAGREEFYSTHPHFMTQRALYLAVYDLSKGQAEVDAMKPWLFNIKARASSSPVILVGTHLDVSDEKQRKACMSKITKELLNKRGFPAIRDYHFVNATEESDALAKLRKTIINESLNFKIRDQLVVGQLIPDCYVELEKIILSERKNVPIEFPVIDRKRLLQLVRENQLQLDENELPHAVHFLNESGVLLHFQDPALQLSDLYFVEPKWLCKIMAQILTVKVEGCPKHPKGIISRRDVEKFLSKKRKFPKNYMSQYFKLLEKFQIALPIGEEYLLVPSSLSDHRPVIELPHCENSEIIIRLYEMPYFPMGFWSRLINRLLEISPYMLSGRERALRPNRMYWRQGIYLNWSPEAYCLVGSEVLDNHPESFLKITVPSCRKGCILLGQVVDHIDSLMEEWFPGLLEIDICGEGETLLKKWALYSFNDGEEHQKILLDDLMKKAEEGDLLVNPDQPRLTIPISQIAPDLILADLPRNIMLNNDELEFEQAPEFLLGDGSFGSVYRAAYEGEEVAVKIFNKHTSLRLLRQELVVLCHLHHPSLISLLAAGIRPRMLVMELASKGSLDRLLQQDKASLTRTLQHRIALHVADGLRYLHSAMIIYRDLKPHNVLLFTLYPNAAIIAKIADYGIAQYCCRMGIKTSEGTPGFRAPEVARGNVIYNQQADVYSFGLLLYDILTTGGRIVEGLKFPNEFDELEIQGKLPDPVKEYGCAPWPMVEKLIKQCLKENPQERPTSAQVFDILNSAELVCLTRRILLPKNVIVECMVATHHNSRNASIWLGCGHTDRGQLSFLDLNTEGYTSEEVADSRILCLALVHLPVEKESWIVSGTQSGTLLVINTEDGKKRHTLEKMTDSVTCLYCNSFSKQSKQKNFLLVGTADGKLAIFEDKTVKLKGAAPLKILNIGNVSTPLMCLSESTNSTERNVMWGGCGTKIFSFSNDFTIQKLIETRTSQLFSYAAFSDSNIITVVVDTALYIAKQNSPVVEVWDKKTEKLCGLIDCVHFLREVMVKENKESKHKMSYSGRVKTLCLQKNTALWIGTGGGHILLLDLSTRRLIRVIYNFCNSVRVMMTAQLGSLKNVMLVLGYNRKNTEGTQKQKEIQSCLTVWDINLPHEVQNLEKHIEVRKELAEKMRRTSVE
Protocol: as §1, §2, §3, §4

T1 sequence (Q5S007 whole entry G2019S): as the sequence (Q5S007 whole entry) above, with G2019S counted along it

C[C@@H]1COCC[C@H]1n1c(C#N)cc2cnc(Nc3cn(CCO)nc3OC3COC3)nc21 (single isomer, unassigned) [Example 160, 2-((1-(2-hydroxyethyl)-3-(oxetan-3-yloxy)-1 H-pyrazol-4-yl)amino)-7-(trans-3-methyltetrahydro-2H-pyran-4-yl)-7H-pyrrolo[2,3-d]pyrimidine-6-carbonitrile]
IC50 (full-length LRRK2 G2019S): 258 nM
IC50 [1]: 325 nM

C[C@@H]1COCC[C@H]1n1c(C#N)cc2cnc(Nc3cn(CCO)nc3OC3COC3)nc21 (single isomer, unassigned) [Example 161, 2-((1-(2-hydroxyethyl)-3-(oxetan-3-yloxy)-1 H-pyrazol-4-yl)amino)-7-(trans-3-methyltetrahydro-2H-pyran-4-yl)-7H-pyrrolo[2,3-d]pyrimidine-6-carbonitrile]
IC50 (full-length LRRK2 G2019S): 14 nM
IC50 [1]: 7 nM

CC(=O)N1CC(Oc2nn(C)cc2Nc2ncc3cc(C#N)n([C@H]4COC[C@@H]4C)c3n2)C1 [Example 1, 2-[[3-(1-acetylazetidin-3-yl)oxy-1-methyl-pyrazol-4-yl]amino]-7-[(3R,4R)-4-methyltetrahydrofuran-3-yl]pyrrolo[2,3-d]pyrimidine-6-carbonitrile]
IC50 (full-length LRRK2 G2019S): 5 nM
IC50 [1]: 6 nM

C[C@H]1COC[C@@H]1n1c(C#N)cc2cnc(Nc3cn(C)nc3OC3COC3)nc21 [Example 8, 2-[[1-methyl-3-(oxetan-3-yloxy)pyrazol-4-yl]amino]-7-[(3R,4R)-4-methyltetrahydrofuran-3-yl]pyrrolo[2,3-d]pyrimidine-6-carbonitrile]
IC50 (full-length LRRK2 G2019S): 4 nM
IC50 [1]: 6 nM

CC(CO)n1cc(Nc2ncc3cc(C#N)n([C@H]4COC[C@@H]4C)c3n2)c(OC2COC2)n1 (stereo partly drawn) [Example 9, 2-[[1-[2-Hydroxy-1-methyl-ethyl]-3-(oxetan-3-yloxy)pyrazol-4-yl]amino]-7-[(3R,4R)-4-methyltetrahydrofuran-3-yl]pyrrolo[2,3-d]pyrimidine-6-carbonitrile]
IC50 (full-length LRRK2 G2019S): 5 nM
IC50 [1]: 5 nM

C[C@H]1COC[C@@H]1n1c(C#N)cc2cnc(Nc3cn(CS(C)(=O)=O)nc3OC3COC3)nc21 [Example 14, 2-[[1-(Methylsulfonylmethyl)-3-(oxetan-3-yloxy)pyrazol-4-yl]amino]-7-[(3R,4R)-4-methyltetrahydrofuran-3-yl]pyrrolo[2,3-d]pyrimidine-6-carbonitrile]
IC50 (full-length LRRK2 G2019S): 2 nM
IC50 [1]: 2 nM

[2H]C([2H])([2H])n1cc(Nc2ncc3cc(C#N)n([C@H]4COC[C@@H]4C)c3n2)c(OC2COC2)n1 [Example 19, 2-((1-(Methyl-d3)-3-(oxetan-3-yloxy)-1 H-pyrazol-4-yl)amino)-7-((3R,4R)-4-methyltetrahydrofuran-3-yl)-7H-pyrrolo[2,3-d]pyrimidine-6-carbonitrile]
IC50 (full-length LRRK2 G2019S): 5 nM
IC50 [1]: 5 nM

C[C@H]1COC[C@@H]1n1c(C#N)cc2cnc(Nc3ccc(C(C)(C)O)cc3OC3COC3)nc21 [Example 20, 2-((4-(2-Hydroxypropan-2-yl)-2-(oxetan-3-yloxy)phenyl)amino)-7-((3R,4R)-4-methyltetrahydrofuran-3-yl)-7H-pyrrolo[2,3-d]pyrimidine-6-carbonitrile]
IC50 (full-length LRRK2 G2019S): 3 nM
IC50 [1]: 3 nM

CC(C)Oc1nn(CC(F)(F)F)cc1Nc1ncc2cc(C#N)n([C@H]3COC[C@@H]3C)c2n1 [Example 25, 2-((3-Isopropoxy-1-(2,2,2-trifluoroethyl)-1H-pyrazol-4-yl)amino)-7-((3R,4R)-4-methyltetrahydrofuran-3-yl)-7H-pyrrolo[2,3-d]pyrimidine-6-carbonitrile]
IC50 (full-length LRRK2 G2019S): 1 nM
IC50 [1]: 1 nM

CC(C)Oc1nn(C)cc1Nc1ncc2cc(C#N)n([C@H]3COC[C@@H]3C)c2n1 [Example 26, 2-((3-Isopropoxy-1-methyl-1H-pyrazol-4-yl)amino)-7-((3R,4R)-4-methyltetrahydrofuran-3-yl)-7H-pyrrolo[2,3-d]pyrimidine-6-carbonitrile]
IC50 (full-length LRRK2 G2019S): 1 nM
IC50 [1]: 1 nM

C[C@H]1COC[C@@H]1n1c(C#N)cc2cnc(Nc3cn(C(C)(C)C#N)nc3OC3COC3)nc21 [Example 27, 2-((1-(2-Cyanopropan-2-yl)-3-(oxetan-3-yloxy)-1H-pyrazol-4-yl)amino)-7-((3R,4R)-4-methyltetrahydrofuran-3-yl)-7H-pyrrolo[2,3-d]pyrimidine-6-carbonitrile]
IC50 (full-length LRRK2 G2019S): 1 nM
IC50 [1]: 1 nM

[2H]C([2H])([2H])n1cc(Nc2ncc3cc(C#N)n([C@H]4COC[C@@H]4C)c3n2)c(OC2CC2)n1 [Example 28, 2-((3-Cyclopropoxy-1-(methyl-d3)-1H-pyrazol-4-yl)amino)-7-((3R,4R)-4-methyltetrahydrofuran-3-yl)-7H-pyrrolo[2,3-d]pyrimidine-6-carbonitrile]
IC50 (full-length LRRK2 G2019S): 3 nM
IC50 [1]: 3 nM

CC(C)Oc1nn(C(C)(C)C#N)cc1Nc1ncc2cc(C#N)n([C@H]3COC[C@@H]3C)c2n1 [Example 29, 2-((1-(2-Cyanopropan-2-yl)-3-isopropoxy-1H-pyrazol-4-yl)amino)-7-((3R,4R)-4-methyltetrahydrofuran-3-yl)-7H-pyrrolo[2,3-d]pyrimidine-6-carbonitrile]
IC50 (full-length LRRK2 G2019S): 1 nM
IC50 [1]: 1 nM

C[C@H]1COC[C@@H]1n1c(C#N)cc2cnc(Nc3cn(C4COC4)nc3OC3CC3)nc21 [Example 30, 2-((3-Cyclopropoxy-1-(oxetan-3-yl)-1H-pyrazol-4-yl)amino)-7-((3R,4R)-4-methyltetrahydrofuran-3-yl)-7H-pyrrolo[2,3-d]pyrimidine-6-carbonitrile]
IC50 (full-length LRRK2 G2019S): 3 nM
IC50 [1]: 5 nM

CC(C)Oc1nn(C2COC2)cc1Nc1ncc2cc(C#N)n([C@H]3COC[C@@H]3C)c2n1 [Example 31, 2-((3-Isopropoxy-1-(oxetan-3-yl)-1H-pyrazol-4-yl)amino)-7-((3R,4R)-4-methyltetrahydrofuran-3-yl)-7H-pyrrolo[2,3-d]pyrimidine-6-carbonitrile]
IC50 (full-length LRRK2 G2019S): 2 nM
IC50 [1]: 2 nM

C[C@H]1COC[C@@H]1n1c(C#N)cc2cnc(Nc3cn(C)nc3OCC(C)(C)O)nc21 [Example 32, 2-((3-(2-Hydroxy-2-methylpropoxy)-1-methyl-1H-pyrazol-4-yl)amino)-7-((3R,4R)-4-methyltetrahydrofuran-3-yl)-7H-pyrrolo[2,3-d]pyrimidine-6-carbonitrile]
IC50 (full-length LRRK2 G2019S): 7 nM
IC50 [1]: 7 nM

COCn1cc(Nc2ncc3cc(C#N)n([C@H]4COC[C@@H]4C)c3n2)c(OC2COC2)n1 [Example 33, 2-((1-(Methoxymethyl)-3-(oxetan-3-yloxy)-1H-pyrazol-4-yl)amino)-7-((3R,4R)-4-methyltetrahydrofuran-3-yl)-7H-pyrrolo[2,3-d]pyrimidine-6-carbonitrile]
IC50 (full-length LRRK2 G2019S): 9 nM
IC50 [1]: 14 nM

C[C@H]1COC[C@@H]1n1c(C#N)cc2cnc(Nc3cn(S(C)(=O)=O)nc3OC3COC3)nc21 [Example 34, 2-((1-(Methylsulfonyl)-3-(oxetan-3-yloxy)-1H-pyrazol-4-yl)amino)-7-((3R,4R)-4-methyltetrahydrofuran-3-yl)-7H-pyrrolo[2,3-d]pyrimidine-6-carbonitrile]
IC50 (full-length LRRK2 G2019S): 5 nM
IC50 [1]: 7 nM

COCn1cc(Nc2ncc3cc(C#N)n([C@H]4COC[C@@H]4C)c3n2)c(OC2CC2)n1 [Example 35, 2-((3-Cyclopropoxy-1-(methoxymethyl)-1H-pyrazol-4-yl)amino)-7-((3R,4R)-4-methyltetrahydrofuran-3-yl)-7H-pyrrolo[2,3-d]pyrimidine-6-carbonitrile]
IC50 (full-length LRRK2 G2019S): 6 nM
IC50 [1]: 4 nM

C[C@H]1COC[C@@H]1n1c(C#N)cc2cnc(Nc3cn(CS(C)(=O)=O)nc3OC3CC3)nc21 [Example 36, 2-((3-Cyclopropoxy-1-((methylsulfonyl)methyl)-1H-pyrazol-4-yl)amino)-7-((3R,4R)-4-methyltetrahydrofuran-3-yl)-7H-pyrrolo[2,3-d]pyrimidine-6-carbonitrile]
IC50 (full-length LRRK2 G2019S): 1 nM
IC50 [1]: 1 nM

C[C@H]1COC[C@@H]1n1c(C#N)cc2cnc(Nc3cn(C4CC4)nc3OC3COC3)nc21 [Example 37, 2-((1-Cyclopropyl-3-(oxetan-3-yloxy)-1H-pyrazol-4-yl)amino)-7-((3R,4R)-4-methyltetrahydrofuran-3-yl)-7H-pyrrolo[2,3-d]pyrimidine-6-carbonitrile]
IC50 (full-length LRRK2 G2019S): 6 nM
IC50 [1]: 8 nM

CCn1cc(Nc2ncc3cc(C#N)n([C@H]4COC[C@@H]4C)c3n2)c(OC2COC2)n1 [Example 38, 2-((1-Ethyl-3-(oxetan-3-yloxy)-1H-pyrazol-4-yl)amino)-7-((3R,4R)-4-methyltetrahydrofuran-3-yl)-7H-pyrrolo[2,3-d]pyrimidine-6-carbonitrile]
IC50 (full-length LRRK2 G2019S): 5 nM
IC50 [1]: 6 nM

C[C@H]1COC[C@@H]1n1c(C#N)cc2cnc(Nc3cn(C)nc3OC3CCC34COC4)nc21 (stereo partly drawn) [Example 40, 2-[[1-methyl-3-[(2-oxaspiro[3.3]heptan-7-yl)oxy]pyrazol-4-yl]amino]-7-[(3R,4R)-4-methyltetrahydrofuran-3-yl]pyrrolo[2,3-d]pyrimidine-6-carbonitrile]
IC50 (full-length LRRK2 G2019S): 1 nM
IC50 [1]: 1 nM
